One series has as its system IFN. Kind of series: Cytokine Induction in Human Cells: interferon (IFN) secreted by PBMCs, A549/encephalomyocarditis bioassay. Further: call rule not given here. The series is classed as cell-based. The settings on record: 18 to 24 hours. Put shortly: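 Human PBMCs from healthy donors at 1.5-2×10^6 cells/mL in RPMI with 10% FBS, exposed to compounds (typically 0.1 to 100 μM, ≤1% DMSO) for 18 to 24 h at 37° C. Secreted IFN measured by A549/encephalomyocarditis virus cytopathic-effect bioassay, in alpha reference units/mL against NIH human leukocyte IFN standard.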

Another series has as its system TNF. Kind of series: Cytokine Induction in Human Cells: tumor necrosis factor (TNF) secreted by PBMCs, ELISA. Further: call rule not given here. Type of series: cell-based. The following applies: 18 to 24 hours. The gist of the method: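 Human donor PBMCs at 1.5-2×10^6 cells/mL in RPMI with 10% FBS were exposed to compound, generally at 0.1 to 100 μM (≤1% DMSO final), for 18 to 24 h at 37 °C. Secreted TNF in supernatant was measured by ELISA and reported as pg/mL.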
(In general: An ELISA detects its analyte on a solid surface through an enzyme-linked reagent.)

For a further series, the system named is interferon α. Kind of series: Interferon (α) Induction in Human Cells (PBM's, 48 hours, A549 bioassay). Type of series: cell-based. Set-up: key: +: indicates that the compound induced interferon α at that particular concentration; −: indicates that the compound did not induce interferon α at that particular concentration; ±: indicates that the results were equivocal at that particular concentration. The settings on record: 48 hours incubation. How it is done: An in vitro human blood cell system was used to assess interferon induction by compounds of the invention. Activity is based on the measurement of interferon secreted into culture media. Interferon is measured by bioassay.
Whole blood was collected by venipuncture into EDTA vacutainer tubes. Peripheral blood mononuclear cells (PBM's) were separated from whole blood by using either LeucoPREP™ Brand Cell Separation Tubes (available from Becton Dickinson) or Ficoll-Paque® solution (available from Pharmacia LKB Biotechnology Inc, Piscataway, N.J.). The PBM's were suspended at 1×10^6/mL in RPMI 1640 media (available from GIBCO, Grand Island, N.Y.) containing 25 mM HEPES (N-2-hydroxyethylpiperazine-N′-2-ethanesulfonic acid) and L-glutamine (1% penicillin-streptomycin solution added) with 10% heat inactivated (56° C. for 30 minutes) autologous serum added. 200 μL portions of PBM suspension were added to 96 well (flat bottom) MicroTest III sterile tissue culture plates.
The compounds were solubilized in ethanol, dimethyl sulfoxide or tissue culture water then diluted with tissue culture water, 0.01N sodium hydroxide or 0.01N hydrochloric acid (The choice of solvent will depend on the chemical characteristics of the compound being tested.). Ethanol or DMSO concentration should not exceed a final concentration of 1% for addition to the culture wells. Compounds were initially tested in a concentration range of from about 0.1 μg/mL to about 5 μg/mL. Compounds which show induction at a concentration of 0.5 μg/mL were then tested in a wider concentration range.
The solution of test compound was added in a volume (less than or equal to 50 μL) to the wells containing 200 μL of diluted whole blood or of PBM's in media. Solvent and/or media was added to control wells (wells with no test compound) and as needed to adjust the final volume of each well to 250 μL. The plates were covered with plastic lids, vortexed gently and then incubated for 48 hours at 37° C. with a 5% carbon dioxide atmosphere.
Following incubation, the plates were covered with parafilm and then centrifuged at 1000 rpm for 10 to 15 minutes at 4° C. in a Damon IEC Model CRU-5000 centrifuge. Media (about 200 μL) was removed from 4 to 8 wells and pooled into 2 mL sterile freezing vials. Samples were maintained at −70° C. until analysis.
Interferon was determined by bioassay using A549 human lung carcinoma cells challenged with encephalomyocarditis. The details of the bioassay method have been described by G. L. Brennan and L. H. Kronenberg in “Automated Bioassay of Interferons in Micro-test Plates”, Biotechniques, June/July 78, 1983, incorporated herein by reference. Briefly stated the method is as follows: interferon dilutions and A549 cells are incubated at 37° C. for 12 to 24 hours. The incubated cells are infected with an inoculum of encephalomyocarditis virus. The infected cells are incubated for an additional period at 37° C. before quantifying for viral cytopathic effect. The viral cytopathic effect is quantified by staining followed by spectrophotometric absorbance measurements. Results are expressed as alpha reference units/mL based on the value obtained for NIH HU IF-L standard. The interferon was identified as essentially all interferon alpha by testing in checkerboard neutralization assays against rabbit anti-human interferon (beta) and goat anti-human interferon (alpha) using A549 cell monolayers challenged with encephalomyocarditis virus.

Structures can show the parent of a compound that is named as a salt.

Consider `CCOCC(=O)Nc1cnc2cccnc2c1NCc1ccccc1.Cl`, for which the melting point – broadly, the temperature of the solid-liquid transition – was 205 to 212 °C.
Same read-out and setting: with `CCCCc1nc2c(N)nc3cccnc3c2n1CCNC(=O)CCc1ccccc1` (as salt: hydrochloride) [Example 96, N^1-[2-(4-Amino-2-butyl-1H-imidazo[4,5-c][1,5]naphthyridin-1-yl)ethyl]-3-phenylpropanamide Hydrochloride] the figure was 183 to 185 °C.
On the same count and under the same terms, the result for `O.Oc1cc2nnnn2c2cnccc12` (hydrate or solvate) reads 247 to 248 °C (dec.).
Still for that read-out and setting: with `CC(C)Cn1cnc2c(N)nc3ncccc3c21` (hydrate or solvate) [Example 9, 1-(2-Methylpropyl)-1H-imidazo[4,5-c][1,8]naphthyridin-4-amine hydrate] the figure was 325 to 330 °C (dec.).
For `CCCCc1nc2c(N)nc3c(c2n1CC(C)C)CCCN3` (hydrate or solvate) [Example 13, 2-Butyl-6,7,8,9-tetrahydro-1-(2-methylpropyl) 1H-imidazo[4,5-c][1,8]naphthyridin-4-amine], the melting point lay in the range of 81 to 84 °C.
`CCCCc1nc2c(N)nc3cccnc3c2n1CCCCNC(=O)c1ccc(N2CCOCC2)nc1` (hydrate or solvate) [Example 106, N^1-[4(4-Amino-2-butyl-1H-imidazo[4,5-c][1,5]naphthyridin-1-yl)butyl]-6-morpholinonicotinamide] showed a melting point of 95 to 100 °C.
Same read-out and setting: with `Cc1nnnn1-c1ncccc1C(=O)O` [Example 1, 2-(5-Methyl-1H-tetrazol-1-yl)nicotinic Acid] the figure was 178 to 180 °C.
In the case of `Oc1cc2nnnn2c2ncccc12` [Example 3, Tetrazolo[1,5-a][1,8]naphthyridin-5-ol], the melting point is 236 °C (dec.).
For `Clc1cc2nnnn2c2ncccc12` [Example 4, 5-Chlorotetrazolo[1,5-a][1,8]naphthyridine], the melting point was 229 to 230 °C (dec.).
As for `CC(C)CNc1c([N+](=O)[O-])c2nnnn2c2ncccc12` [Example 6, N^5-(2-Methylpropyl)-4-nitrotetrazolo[1,5-a][1,8]naphthyridin-5-amine], the melting point is 171 °C (dec.).
For the molecule `CC(C)Cn1cnc2c(N)nc3ncccc3c21` [Example 9, 1-(2-Methylpropyl)-1H-imidazo[4,5-c][1,8]naphthyridin-4-amine hydrate], the IFN induction entry in the series on IFN (Dose Concentration 0.1 μM) is recorded as “±”; with IFN (Dose Concentration 1.0 μM), “−”; with IFN (Dose Concentration 10.0 μM), “+”; with IFN (Dose Concentration 100.0 μM) it was “−”. The TNF induction entry in the series with TNF (Dose Concentration 0.1 μM), with TNF (Dose Concentration 1.0 μM), in the series on TNF (Dose Concentration 10.0 μM) and with TNF (Dose Concentration 100.0 μM) was “−” in each case. Further, the “Interferon (α) Induction in Human Cells” value in the series with interferon α (Dose Concentration 0.01 μg/mL), in the series on interferon α (Dose Concentration 0.05 μg/mL), with interferon α (Dose Concentration 0.10 μg/mL), with interferon α (Dose Concentration 0.50 μg/mL), in the series on interferon α (Dose Concentration 1.0 μg/mL) and with interferon α (Dose Concentration 5.0 μg/mL) was “−” in each case. In addition, the “Interferon (α) Induction in Human Cells” value with interferon α (Dose Concentration 10.0 μg/mL), with interferon α (Dose Concentration 25.0 μg/mL) and in the series on interferon α (Dose Concentration 50.0 μg/mL) was “−” each time.
For the molecule `CCCCc1nc2c(N)nc3ncccc3c2n1CC(C)C` [Example 12, 2-Butyl-1-(2-methylpropyl)-1H-imidazo[4,5-c][1,8]naphthyridin-4-amine], the IFN induction entry in the series on IFN (Dose Concentration 1.0 μM), in the series on IFN (Dose Concentration 10.0 μM) and in the series on IFN (Dose Concentration 100.0 μM) was “+” in each case. Also, the TNF induction entry in the series with TNF (Dose Concentration 1.0 μM), in the series with TNF (Dose Concentration 10.0 μM) and with TNF (Dose Concentration 100.0 μM) was “+” in each case. Moreover, the “Interferon (α) Induction in Human Cells” value with interferon α (Dose Concentration 0.01 μg/mL) is on record as “−”; in the series on interferon α (Dose Concentration 0.05 μg/mL), “−”; in the series with interferon α (Dose Concentration 0.10 μg/mL) it was “+”; in the series on interferon α (Dose Concentration 0.50 μg/mL), “+”; in the series on interferon α (Dose Concentration 1.0 μg/mL), “+”; in the series on interferon α (Dose Concentration 5.0 μg/mL), “+”. For the same molecule, the “Interferon (α) Induction in Human Cells” value with interferon α (Dose Concentration 10.0 μg/mL), with interferon α (Dose Concentration 25.0 μg/mL) and in the series on interferon α (Dose Concentration 50.0 μg/mL) was “+” each time.
With `CCCCc1nc2c(N)nc3c(c2n1CC(C)C)CCCN3` [Example 13, 2-Butyl-6,7,8,9-tetrahydro-1-(2-methylpropyl) 1H-imidazo[4,5-c][1,8]naphthyridin-4-amine], the IFN induction result with IFN (Dose Concentration 1.0 μM), with IFN (Dose Concentration 10.0 μM) and in the series on IFN (Dose Concentration 100.0 μM) was “+” each time. Besides, the TNF induction entry in the series with TNF (Dose Concentration 1.0 μM), with TNF (Dose Concentration 10.0 μM) and with TNF (Dose Concentration 100.0 μM) was “+” throughout. Moreover, the “Interferon (α) Induction in Human Cells” value was “−” with interferon α (Dose Concentration 0.01 μg/mL); “+” in the series with interferon α (Dose Concentration 0.05 μg/mL); “+” with interferon α (Dose Concentration 0.10 μg/mL); “+” with interferon α (Dose Concentration 0.50 μg/mL); “+” with interferon α (Dose Concentration 1.0 μg/mL); “+” in the series with interferon α (Dose Concentration 5.0 μg/mL). Moreover, the “Interferon (α) Induction in Human Cells” value with interferon α (Dose Concentration 10.0 μg/mL), in the series with interferon α (Dose Concentration 25.0 μg/mL) and in the series on interferon α (Dose Concentration 50.0 μg/mL) was “+” each time.
`CCCCc1nc2c(N)nc3cccnc3c2n1CC(C)C` [Example 39, 2-Butyl-1-(2-methylpropyl)-1H-imidazo[4,5-c][1,5]naphthyridin-4-amine]: the IFN induction entry in the series on IFN (Dose Concentration 1.0 μM) is reported as “+”; with IFN (Dose Concentration 10.0 μM) it was “+”; with IFN (Dose Concentration 100.0 μM), “−”. The TNF induction result in the series with TNF (Dose Concentration 1.0 μM) is listed as “+”; in the series with TNF (Dose Concentration 10.0 μM) it was “+”; in the series with TNF (Dose Concentration 100.0 μM) it was “−”. In addition, the “Interferon (α) Induction in Human Cells” value in the series with interferon α (Dose Concentration 0.01 μg/mL) is on record as “−”; with interferon α (Dose Concentration 0.05 μg/mL), “−”; with interferon α (Dose Concentration 0.10 μg/mL), “+”; with interferon α (Dose Concentration 0.50 μg/mL), “+”; in the series on interferon α (Dose Concentration 1.0 μg/mL), “+”; in the series with interferon α (Dose Concentration 5.0 μg/mL) it was “+”. The “Interferon (α) Induction in Human Cells” value in the series on interferon α (Dose Concentration 10.0 μg/mL), with interferon α (Dose Concentration 25.0 μg/mL) and in the series with interferon α (Dose Concentration 50.0 μg/mL) was “+” in each case.
For `CCCCc1nc2c(N)nc3c(c2n1CC(C)C)NCCC3` [Example 40, 6,7,8,9-Tetrahydro-2-butyl-1-(2-methylpropyl)-1H-imidazo[4,5-c][1,5]naphthyridin-4-amine], the IFN induction result in the series on IFN (Dose Concentration 1.0 μM) is reported as “+”; with IFN (Dose Concentration 10.0 μM), “+”; with IFN (Dose Concentration 100.0 μM), “±”. The TNF induction result in the series on TNF (Dose Concentration 1.0 μM), with TNF (Dose Concentration 10.0 μM) and with TNF (Dose Concentration 100.0 μM) was “+” each time. Also, the “Interferon (α) Induction in Human Cells” value is recorded as “−” in the series on interferon α (Dose Concentration 0.01 μg/mL); “+” in the series on interferon α (Dose Concentration 0.05 μg/mL); “+” in the series with interferon α (Dose Concentration 0.10 μg/mL); “+” with interferon α (Dose Concentration 0.50 μg/mL); “+” with interferon α (Dose Concentration 1.0 μg/mL); “+” in the series on interferon α (Dose Concentration 5.0 μg/mL). Moreover, the “Interferon (α) Induction in Human Cells” value in the series on interferon α (Dose Concentration 10.0 μg/mL), with interferon α (Dose Concentration 25.0 μg/mL) and with interferon α (Dose Concentration 50.0 μg/mL) was “+” throughout.

For the origin of these results see US7678918B2, “Intermediates for imidazonaphthyridines” (3M Innovative Properties Company, priority 1997, dated 2010).
